{"source": "patent US8647867B2", "about": "“Cell cultivation method and cell culture” (National University Corportion Okayama University, priority 2005, dated 2014)", "key": {"[1]": {"tested_on": "porcine hepatocyte", "test": "Metabolic ability of ammonia in cultured porcine hepatocyte", "assay_type": "cell-based", "parameters": "ammonia metabolic rate: unit not given beside the values", "details": "for ammonia metabolic rate: ammonium sulfate 0.56 mM, after 24 hours"}, "[2]": {"tested_on": "human hepatocyte", "test": "Metabolic ability of ammonia in cultured human hepatocyte", "assay_type": "cell-based", "details": "culture without insert; for ammonia metabolic rate: ammonium sulfate 0.56 mM, after 24 hours", "description": "(§1) Donor liver judged to be unsuitable for transplantation in the United States was obtained from National Disease Research Interchange via HUMAN & ANIMAL BRIDGING […] ORGANIZATION laboratory (Ichikawa city, Chiba prefecture, responsible person) in the form of liver block (130 g) which was then separated into hepatocyte in the same manner as for the above-described isolation of porcine hepatocyte in Example 1."}, "[3]": {"tested_on": "human pancreatic islet", "test": "Insulin production ability of cultured human pancreatic islet", "assay_type": "cell-based", "protocol": "Healthy isolated human pancreatic islets provided from Alberta University in Canada (those skilled in the art can obtain them from Canada, Alberta University, human pancreatic islet transplantation program, Dr. Jonathan R T. Lakey) were seeded in a T25 10 culture flask.\nInsulin production abilities of cultured human pancreatic islet were determined and compared between groups A and B. Using low glucose DMEM (glucose concentration: […]) (available from GIBCO, Oakland, N.J.) supplemented with 10% FCS, nicotineamide 10 mM and penicillin G/streptomycin, cells were cultured for 24 hours until 60% confluency (low glucose). Then, the medium was changed for high glucose DMEM (glucose concentration: […]) (available from GIBCO, Oakland, N.J.) supplemented with 10% FCS, nicotineamide 10 mM and penicillin G/streptomycin, and cells were cultured for 6 hours (high glucose). After high glucose culture, the medium was exchanged for low glucose DMEM and cells were cultured for 6 hours (low glucose (after)). After respective culture operations, the production amount of insulin in the culture medium (μg/l) was determined by an immunostaining method using a rabbit anti-human insulin antibody (available from DakoCytomation K. K., Kyoto, Japan)."}, "[4]": {"tested_on": "human hepatocyte", "test": "Morphological study of cultured human hepatocyte by phase-contrast and electron microscope", "assay_type": "cell-based", "details": "culture without insert, phase-contrast microscope days 1 and 5, electron microscope day 5", "protocol": "as §1\nRecently, it has been known that when three-dimensional culture of cells is performed on scaffold, cell functions are improved and maintained. […] In contrast, human hepatocytes cultured with collagen type I (monolayer) (group B) adhered in flat form to the surface of the culture flask (see, Photograph 1 in FIG. 7(a)). […] As a result, it was clarified that it is more suitable for culture of human hepatocyte to use PuraMatrix of SEQ ID NO:1."}, "[5]": {"tested_on": "porcine hepatocyte", "test": "Metabolic ability of diazepam in cultured porcine hepatocyte", "method": "Large white male pigs (body weight: 15 to 20 kg) were used. 1.5 ml of ketalar for intramuscular injection was injected to cause sedation and then, auricular vein was acquired and 5 mg/kg of isozol and 1 mg/kg of musculax were administered intravenously to obtain muscle relaxation. After endotracheal intubation, peritoneotomy was performed under general anesthesia with sevoflurene under controlled ventilation by an artificial respirator. A liver lateral region of the pig was surgically excised (about 80 g), perfusion was performed through excised cross-section portal vein and hepatic vein. First, the excised liver was perfused with a primary perfusion solution (sodium chloride 9 g/L, potassium chloride 0.42 g/L, sodium hydrogen carbonate 2.1 g/L, glucose 0.9 g/L, HEPES 4.78 g/L, ethylenediamine tetraacetic acid (EDTA) 0.37 g/L), subsequently, perfused with a secondary perfusion solution containing no EDTA (sodium chloride 9 g/L, potassium chloride 0.42 g/L, sodium hydrogen carbonate 2.1 g/L, glucose 0.9 g/L, HEPES 4.78 g/L). Thereafter, perfusion of the liver, kept at 39° C., was done with a dispase solution (sodium chloride 9 g/L, potassium chloride 0.42 g/L, sodium hydrogen carbonate 2.1 g/L, glucose 0.9 g/L, HEPES 4.78 g/L, dispase 8.4 g/L) (available from Godo Shusei K. K., Tokyo, Japan) and finally, with a collagenase solution (sodium chloride 9 g/L, potassium chloride 0.42 g/L, sodium hydrogen carbonate 2.1 g/L, glucose 0.9 g/L, HEPES 4.78 g/L, collagenase 0.5 g/L (available from Nitta Gelatin Inc., Osaka, Japan), calcium chloride monohydrate 0.55 g/L). […]\nThe metabolic abilities of diazepam in cultured porcine hepatocyte were measured and compared between groups A and B. Diazepam (1 pg/ml) was added to porcine hepatocyte media on days 1, 7 and 14 of culture, and the concentration of diazepam in the media after 24 hours was measured (entrusted to SRL K. K.), and the metabolic rate was calculated."}, "[6]": {"details": "porcine hepatocyte, culture without insert, days 1, 7 and 14"}, "[7]": {"details": "culture without insert, days 1, 7 and 14"}}, "data": [{"smiles": "CC(=O)N[C@@H](CCCNC(=N)N)C(=O)N[C@@H](C)C(=O)N[C@@H](CC(=O)O)C(=O)N[C@@H](C)C(=O)N[C@@H](CCCNC(=N)N)C(=O)N[C@@H](C)C(=O)N[C@@H](CC(=O)O)C(=O)N[C@@H](C)C(=O)N[C@@H](CCCNC(=N)N)C(=O)N[C@@H](C)C(=O)N[C@@H](CC(=O)O)C(=O)N[C@@H](C)C(=O)N[C@@H](CCCNC(=N)N)C(=O)N[C@@H](C)C(=O)N[C@@H](CC(=O)O)C(=O)N[C@@H](C)C(N)=O", "note": "[Group A, Ac-(RADA)4-CONH2]", "values": [{"measurement": "ammonia metabolic rate", "setting": "[1]; Table 1(a), culture without insert, day 1 of culture", "result": 58.6}, {"measurement": "ammonia metabolic rate", "setting": "[1]; Table 1(a), culture without insert, day 7 of culture", "result": 43.8}, {"measurement": "ammonia metabolic rate", "setting": "[1]; Table 1(a), culture without insert, day 14 of culture", "result": 26.4}, {"measurement": "ammonia metabolic rate", "setting": "[1]; Table 1(c), culture with insert, day 1 of culture", "result": 61.6}, {"measurement": "ammonia metabolic rate", "setting": "[1]; Table 1(c), culture with insert, day 7 of culture", "result": 49.6}, {"measurement": "ammonia metabolic rate", "setting": "[1]; Table 1(c), culture with insert, day 14 of culture", "result": 38.2}, {"measurement": "ammonia metabolic rate", "setting": "[1]; Table 1(c), culture with insert, day 21 of culture", "result": 36.1}, {"measurement": "ammonia metabolic rate", "setting": "[1]; Table 1b, culture without insert, day 1 of culture", "result": 59.8}, {"measurement": "ammonia metabolic rate", "setting": "[1]; Table 1b, culture without insert, day 7 of culture", "result": 44.3}, {"measurement": "ammonia metabolic rate", "setting": "[1]; Table 1b, culture without insert, day 14 of culture", "result": 33.3}, {"measurement": "ammonia metabolic rate as compared with collagen type I (monolayer) (group B), Matrigel (group C) and collagen sandwich (group D)", "setting": "[1]; porcine hepatocyte, culture with insert, days 1, 7, 14 and 21", "result": "significantly better"}, {"measurement": "ammonia metabolic rate as compared with collagen type I (monolayer) (group B)", "setting": "[1]; [6]", "result": "significantly better"}, {"measurement": "ammonia metabolic rate as compared with collagen type I (monolayer) (group B) and Matrigel (group C)", "setting": "[1]; [6]", "result": "significantly better"}, {"measurement": "ammonia metabolic rate", "setting": "[2]; Table 4(a), day 1 of culture", "result": 45.0}, {"measurement": "ammonia metabolic rate", "setting": "[2]; Table 4(a), day 3 of culture", "result": 32.8}, {"measurement": "ammonia metabolic rate", "setting": "[2]; Table 4(a), day 5 of culture", "result": 20.4}, {"measurement": "ammonia metabolic rate", "setting": "[2]; Table 4(b), day 1 of culture", "result": 45.0}, {"measurement": "ammonia metabolic rate", "setting": "[2]; Table 4(b), day 3 of culture", "result": 32.8}, {"measurement": "ammonia metabolic rate", "setting": "[2]; Table 4(b), day 5 of culture", "result": 20.4}, {"measurement": "ammonia metabolic rate as compared with collagen type I (monolayer) (group B)", "setting": "[2]; days 1, 3 and 5", "result": "significantly better"}, {"measurement": "ammonia metabolic rate as compared with collagen type I (monolayer) (group B) and Matrigel (group C)", "setting": "[2]; days 1, 3 and 5", "result": "significantly better"}, {"measurement": "production amount of insulin in the culture medium", "setting": "[3]; human islets (10 seeded), day 1 of culture, low glucose (100 g/l, 24 hours)", "result": 0.60, "unit": "µg/L"}, {"measurement": "production amount of insulin in the culture medium", "setting": "[3]; human islets, day 1 of culture, high glucose (450 g/l, 6 hours)", "result": 1.89, "unit": "µg/L"}, {"measurement": "production amount of insulin in the culture medium", "setting": "[3]; human islets, day 1 of culture, low glucose (after), 6 hours", "result": 1.13, "unit": "µg/L"}, {"measurement": "production amount of insulin in the culture medium", "setting": "[3]; human islets, day 3 of culture, high glucose (450 g/l, 6 hours)", "result": 1.68, "unit": "µg/L"}, {"measurement": "production amount of insulin in the culture medium", "setting": "[3]; human islets, day 3 of culture, low glucose (100 g/l, 24 hours)", "result": 0.58, "unit": "µg/L"}, {"measurement": "production amount of insulin in the culture medium", "setting": "[3]; human islets, day 3 of culture, low glucose (after), 6 hours", "result": 1.11, "unit": "µg/L"}, {"measurement": "production amount of insulin in the culture medium", "setting": "[3]; human islets, day 5 of culture, high glucose (450 g/l, 6 hours)", "result": 1.43, "unit": "µg/L"}, {"measurement": "production amount of insulin in the culture medium", "setting": "[3]; human islets, day 5 of culture, low glucose (100 g/l, 24 hours)", "result": 0.51, "unit": "µg/L"}, {"measurement": "production amount of insulin in the culture medium", "setting": "[3]; human islets, day 5 of culture, low glucose (after), 6 hours", "result": 1.10, "unit": "µg/L"}, {"measurement": "production amount of insulin in the culture medium", "setting": "[3]; human islets, day 7 of culture, high glucose (450 g/l, 6 hours)", "result": 0.76, "unit": "µg/L"}, {"measurement": "production amount of insulin in the culture medium", "setting": "[3]; human islets, day 7 of culture, low glucose (100 g/l, 24 hours)", "result": 0.41, "unit": "µg/L"}, {"measurement": "production amount of insulin in the culture medium", "setting": "[3]; human islets, day 7 of culture, low glucose (after), 6 hours", "result": 0.54, "unit": "µg/L"}, {"measurement": "amount of insulin secreted in high glucose concentration (response to glucose concentration)", "setting": "[3]; human pancreatic islet, day 7 of culture", "result": "increased"}, {"measurement": "formation of three-dimensional spheroid by hepatocytes", "setting": "[4]", "result": "formation of three-dimensional spheroid by hepatocytes was confirmed"}, {"measurement": "diazepam metabolic rate as compared with collagen type I (monolayer) (group B), Matrigel (group C) and collagen sandwich (group D)", "setting": "[5]; culture with insert, days 1, 7, 14 and 21", "result": "significantly better"}, {"measurement": "diazepam metabolic rate as compared with collagen type I (monolayer) (group B)", "setting": "[5]; [7]", "result": "significantly better"}, {"measurement": "diazepam metabolic rate as compared with collagen type I (monolayer) (group B) and Matrigel (group C)", "setting": "[5]; [7]", "result": "significantly better"}]}]}
